In this test the target is T1, CFTR-associated ligand (CAL) PDZ domain (Homo sapiens, UniProt Q9HD26).
T1 construct: gene GOPC; CAL PDZ domain (CALP; UniProt Q9HD26-2)
In words: MALDI-TOF MS of covalent adduct; no effect on peptide affinity by FP. Type of test: binding.

Among the data in publication PMC6435542 (Bioscience Reports, 2018) are EM values, retold here.

Structures are written as SMILES.

With `CCN1C(=O)C=CC1=O` [EM, N-ethyl-maleimide], the EM is given as 90–92 % covalent modification.
